Experiment [1] relates to PC-3 human prostate carcinoma xenografts. In words: PC-3 xenograft combination therapy (Example 3, first study).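 As to all read-outs here: subcutaneous PC-3 tumors in male athymic NCr nude mice aged 6-7 weeks, combination agents dosed within 30 min of each other, animals euthanized once tumors exceeded 2 g.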 Conditions: for Tumor Growth Delay: T-C, evaluation size 750 mg; for % T/C Day 22: VGX-100 40 mg/kg IP, bevacizumab 10 mg/kg IP, docetaxel 10 mg/kg IV, median tumor mass vs control; for % TFS (tumor free survivors): at termination, Day 160; for Complete regression / Partial regression / Tumor free survivor: yes/no; for Total CR / Total PR / Total TFS: number of animals of 10.
Description: Docetaxel was administered intravenously at 10 mg/kg weekly for three injections.
HIgG1 Isotype control-humanised antibody (6.4-12.36 mg/ml) and VGX-100 (5.53 and 5.75 mg/ml) were provided as frozen colorless stock solutions in Dulbecco's phosphate buffered saline (DPBS) and stored from light at −80° C. The stock solutions were thawed and stored at 4° C. when treatment began. The dosing solutions (40 mg/kg in 0.2 ml/20 g body weight) were prepared by diluting the stock solution with DPBS. The resulting formulations were clear with pH values ranging from 7.02-7.21. The dosing vials were kept on wet ice during dosing, gently pipetted and not aspirated through a needle except during administration. Dosing solutions were prepared weekly in DPBS and stored protected from light at 4° C. while not in use.
Docetaxel (lot no. D9A095) was manufactured by Sanofi-Aventis and obtained from McKesson as a pale yellow solution in 50% EtOH/50% Tween80. It was stored protected from light at 4° C. Docetaxel was diluted as directed on the package insert with the provided diluent (sterile water) to produce a clear and colorless 10 mg/ml stock solution. On each treatment day, a fresh 10 mg/ml stock was prepared and further diluted with water to achieve the appropriate concentration. The resulting solution was clear and colorless with a pH of 7.16.
All test articles were administered within two hours of preparation. For groups receiving combination therapy, the drugs were administered in the order presented in Table 1 and within 30 minutes of one another.
Male NCR(NCRNU-M) athymic mice were obtained from Taconic. They were 6-7 weeks old on Day 1 of the experiment. The mice were fed irradiated Rodent Diet 5053 (LabDiet™) and water ad libitum. The mice were housed in static cages with Bed-O'Cobs™ bedding inside Biobubble® Clean Rooms that provide H.E.P.A filtered air into the bubble environment at 100 complete air changes per hour. All treatments, body weight determinations, and tumor measurements were carried out in the bubble environment. The environment was controlled to a temperature range of 21.1±1.1° C. (70±2° F.) and a humidity range of 30-70%.
Test mice were implanted subcutaneously on Day 0. […] Mice with tumors in excess of 2 g or with ulcerated tumors were euthanized, as were those found in obvious distress or in a moribund condition.
PC-3 cells were obtained from ATCC and expanded using Ham's F-12 media supplemented with 10% fetal bovine serum and 1% penicillin-streptomycin-glutamine in 5% CO2 atmosphere at 37° C. When expansion was complete, the cells were collected using Trypsin (Cell Gro®), the trypsin neutralized, and the cells pooled for implantation. The PC-3 (Passage 10) cell suspension was counted using trypan blue exclusion with a hemacytometer. The cell suspension was reduced to a pellet using an Eppendorf 5810R centrifuge at 1500 rpm (300×g) for 5 minutes at 4° C. A 2.5×10^7 cells/ml suspension was prepared in 50% serum free media and 50% Matrigel®. Pre-injection viability was 97.7%. Test animals were implanted subcutaneously on Day 0 with 5×10^6 cells/animal (0.2 ml) using a 27-gauge needle and syringe. The cell suspension was maintained on wet ice to minimize the loss of viability and inverted frequently to maintain a uniform cell suspension during the inoculation procedure.
Treatments began on Day 8, when the mean estimated tumor mass for all groups in the experiment was 129 mg (range of group means, 123-134 mg). All animals weighed≧19.2 g at the initiation of therapy. Mean group body weights at first treatment were matched (range of group means, 21.5-22.8 g). All animals were dosed according to individual body weight on the day of treatment (0.2 ml/20 g).

Experiment [2] concerns U87MG human glioblastoma tumors. In words: U87MG glioblastoma xenograft, combination (Example 7). The note with it: VGX-100 40 mg/kg, bevacizumab 10 mg/kg, administered alone. In kind it is in vivo, nude mice. Here is the method:
This experiment was conducted broadly in accordance with Example 3, except that U87MG glioblastoma cells were substituted for PC-3 prostate cancer cells. Cells from a human glioblastoma tumor line (U87MG) were implanted subcutaneously into mice and grown until the tumors reached an average size of approximately 150 mg. […] There were 10 animals per treatment group.

The subject of experiment [3] is KP4 human pancreatic tumors. In words: KP4 pancreatic xenograft (Example 8). The note with it: VGX-100 40 mg/kg and/or Avastin 10 mg/kg; for % T/C: after 30 days.
Description: VGX-100 was administered at 20 or 40 mg/kg for single therapy and at 40/mg/kg for combination therapy.
To initiate the study, 5×10^6 of KP4 cells suspended in 100 μl of a mixture of medium/Matrigel (1:1) were subcutaneously implanted to the nude mice in the right flank region. Cancer cells were implanted into 90 mice. Animals were monitored for tumor growth daily after cell implantation. When tumor volumes reached 80-100 mm^3, mice were randomized into 5 groups of 10 mice each using only mice having tumor volumes closest to the mean value. Mice with tumor volumes too big or too small were excluded from the study. Tumor volumes were measured using the formula V=L×W×H×π/6, where L and W represented the longer and shorter diameters of the tumor and H represented the height of the tumor. The treatment with drugs was initiated on the day after randomization. […] All treatments were administered intraperitoneally twice weekly for 30 days.
Throughout the entire study, tumor volumes were measured twice weekly and body weights once weekly. […] Unscheduled sacrifices were performed if tumor volumes reached>2,000 mm^3, animals lost>25% of their original body weights, tumor ulceration appeared, or mice became moribund. At the end of the experiment, tumors were removed, embedded in Optimal Cutting Temperature (OCT), and stored at −80° C. for IHC analysis. Gross examination was conducted on liver, lung, spleen, kidneys, testes, and prostate. If no abnormal observation was detected on these organs, the tissues were discarded.
Tumor size was measured 2-3 times weekly with calipers. Size of tumors relative to controls is calculated after 30 days of treatment.
For experiment [4], the system named is metastatic colorectal cancer. Conditions: cited from earlier work.
The mark [5] stands for this setting: tumor doubling time, individual animals.
Setting [6] is: subjects progressed following 5-FU therapy.
The mark [7] stands for this setting: Mayo Clinic or Roswell Park regimen, newly diagnosed.

Where “and” joins values, the source holds several entries; their conditions need not be identical. Identical values can stand only once.

This is an account of results in patent US20130344065A1, “Combination Treatment with VEGF-C Antagonists” (Vegenics Pty Ltd, priority 2010, published 2013).

Consider `CC(=O)O[C@@]12CO[C@@H]1C[C@H](O)[C@@]1(C)C(=O)[C@H](O)C3=C(C)[C@@H](OC(=O)[C@H](O)[C@@H](NC(=O)OC(C)(C)C)c4ccccc4)C[C@@](O)([C@@H](OC(=O)c4ccccc4)[C@H]21)C3(C)C` [Docetaxel, docetaxel], for which, in experiment [1] (750 mg, individual animals), the “Time to evaluation size” value is 81.0 days (2×) and >160 days (2×) and 62.3 days and 89.1 days and 72.1 days and 69.0 days and 62.5 days and 66.5 days. For the same compound, in experiment [1] (same doses), the “Tumor Growth Delay” value was 56.5 days; the “% TFS (tumor free survivors)” value was “Twenty percent and 20%”; the “% CR (complete regression)” value was found to be 100%; the “% PR (partial regression)” value is listed as 0%. In experiment [1] (same doses), the “Anticancer activity of regimen” value is on record as “highly active” and the “Apparent Net Tumor Cell Kill (logs)” value was found to be 1.13 logs. Further, in experiment [1], the “% T/C Day 22” value is 8%, the “Total CR” value is reported as 10, the “Total PR” value was 0 and the “Total TFS” value amounted to 2. Besides, the “% T/C: tumor burden in treatment group compared to control” value in experiment [1] (at day 160) was 82.4%. Besides, in experiment [1] (group mean), the “Td” value is 8.8 days and the “Time to fold growth EP” value amounted to 86.0 days. For the same compound, in experiment [1] (group median), the “Td” value stood at 8.8 days, the “Time to evaluation size” value is on record as 76.5 days and the “Time to fold growth EP” value turned out to be 69.6 days. In experiment [1] (individual animals), the “Time to fold growth EP” value was 78.1 days and >160 days (2×) and 57.4 days and 81.6 days and 65.4 days and 58.5 days and 60.0 days and 73.3 days and 65.9 days; the Complete regression entry is “yes”; the Partial regression entry is given as “no”; the Tumor free survivor result was “no (8×) and yes (2×)”. Besides, in experiment [1] (study to day 160), the “Average Survival” value came out at 108.6 days. The “Td” value in experiment [1] (setting [5]) is 5.1 days and 8.5 days and 9.4 days and 9.1 days and 13.2 days and 6.5 days and 13.4 days and 5.0 days.

In the case of “Bevacizumab: recombinant humanized VEGF-A monoclonal antibody”, the “Effect on tumor growth” value in experiment [2] is recorded as “only a minor effect”. Moreover, the “Mean Tumor Vol. at D30 (mm3)” value in experiment [3] is recorded as 596.7 mm3. For the same compound, the “% T/C” value in experiment [3] (listed as Avastin) amounted to 30.4%. For the same compound, in experiment [3] (listed as bevacizumab), the “% T/C” value was 30.4%. The “Time to evaluation size” value in experiment [1] (750 mg, individual animals) is 36.3 days and 24.4 days and 25.8 days and 33.0 days and 30.5 days and 25.2 days and 25.4 days and 44.3 days and 18.0 days and 22.7 days. Moreover, in experiment [1] (same doses), the “Tumor Growth Delay” value is reported as 5.6 days, the “% TFS (tumor free survivors)” value is 0%, the “% CR (complete regression)” value came to 0% and the “% PR (partial regression)” value worked out at 0%. For the same compound, in experiment [1] (same doses), the “Apparent Net Tumor Cell Kill (logs)” value is given as −4.91 logs and the “Tumor regressions” value is listed as “No tumor regressions were observed”. In experiment [1], the “% T/C Day 22” value is recorded as 70%, the “Total CR” value is listed as 0, the “Total PR” value turned out to be 0 and the “Total TFS” value is on record as 0. Moreover, in experiment [1] (group mean), the “Td” value stood at 12.2 days and the “Time to evaluation size” value is on record as 28.6 days. Further, in experiment [1] (group median), the “Td” value is listed as 9.6 days and the “Time to evaluation size” value is on record as 25.6 days. In addition, in experiment [1] (individual animals), the Complete regression result is recorded as “no”, the Partial regression entry is on record as “no” and the Tumor free survivor result is “no”. Also, in experiment [1] (setting [5]), the “Td” value is 16.9 days and 7.4 days and 7.5 days and 13.7 days and 16.8 days and 10.6 days and 8.6 days and 27.8 days and 4.8 days and 8.4 days.

`CCc1c2c(nc3ccc(OC(=O)N4CCC(N5CCCCC5)CC4)cc13)-c1cc3c(c(=O)n1C2)COC(=O)[C@]3(O)CC` [irinotecan]: in experiment [4] (setting [6]), the “Prolongation of survival vs best supportive care” value is reported as 2.8 month and the “Prolongation of survival vs infusional 5-FU” value is given as 2.2 month.

As to 5-FU/leucovorin, in experiment [4] (setting [7]), the Median survival is recorded as 12-14 months and the “Median time to disease progression” value is reported as 4-5 months.
